Reference: patent publication US20240262835A1, “PRMT5 INHIBITING COMPOUNDS AND USES THEREOF” (ANTENGENE DISCOVERY LIMITED, priority 2023, published 2024)
Read-outs that look alike come from different tables or passages of the source. One block for each molecule: values may come before it.

How the values were obtained:
PRMT5/MEP50 = PRMT5/MEP50 (Homo sapiens (Human), UniProt O14744); assay: MTase-Glo methyl transferase assay (PRMT5 inhibition); assay type: biochemical; details: 50 nM PRMT5/MEP50, 25 μM SAM, 5 μM Histone H4 peptide (1-21), read-out: IC50 for PRMT5 inhibiting
Method: The PRMT5 inhibitory activity of test compounds was determined using the MTase-Glo™ assay (Promega), which monitors the product (S-adenosyl homocysteine or SAH) of methyltransferase reactions. The PRMT5 MTase-Glo assays were conducted in a 384-well white ProxiPlate (PerkinElmer, catalog no.: 6008280) in a total volume of 12 μL. The PRMT5 enzymatic reaction (in 4 μL) contained 50 nM PRMT5/MEP50 (Reaction Biology Corp, catalog no.: HMT-22-148), 25 μM S-adenosyl methionine (SAM, Promega), 5 μM Histone H4 peptide (1-21) (BPS Bioscience, catalog no.: 52018-2) and five-fold serially diluted compounds in a reaction buffer of 50 mM Tris (pH 8.0), 50 mM NaCl, 0.01% Tween 20, 0.01% BSA, and 1 mM DTT. The test compounds were pre-incubated with PRMT5/MEP50 and Histone H4 peptide for 20 minutes at room temperature before the addition of SAM to initiate the PRMT5 reaction. The reaction was allowed to proceed for 1 hour at 37° C. and was terminated by 2 μL of 3× MTase-Glo™ Reagent (Promega) and 150 μM EPZ015666 (Selleck, catalog no.: 1616391-65-1). After a 30-minute incubation at room temperature, 6 μL of MTase-Glo™ Detection Solution (Promega) was added and the plate was incubated at room temperature for an additional 30 minutes. The light signal corresponding to the amount of SAH produced by the PRMT5 reaction was subsequently measured using an Envision multimode reader (PerkinElmer). IC50 and Ki values were obtained by analyzing dose-response curves using GraphPad Prism.

PRMT5/MEP50 complex = PRMT5/MEP50 complex (Homo sapiens (Human), UniProt O14744); assay: PRMT5/MEP50 HotSpot methyltransferase assay (with 100 nM MTA); assay type: biochemical; details: histone H2A substrate, 1 μM 3H-SAM
Method: The assay used recombinant full-length histone H2A as the substrate of PRMT5. Enzymatic transfer of the tritiated methyl group from S-adenosyl-L-[methyl-3H]methionine (3H-SAM) to the histone H2A protein generated a radiolabeled histone H2A by measuring in a scintillation counter to determine the activity of PRMT5 enzyme in the presence and absence of compound. The assay reactions were conducted in the presence of 100 nM MTA. Briefly, compounds were solubilized in 100% DMSO at the highest concentration of 10 mM. […] Control samples lacking compound, PRTM5/MEP50 complex or various reaction components also were prepared and processed in parallel with compound test samples. SAH was used as a positive control for assay validation. To measure PRMT5 inhibitory activity, 1 nM PRTM5/MEP50 complex was preincubated with test compound in assay buffer containing 5 μM full-length histone H2A for 15 minutes at room temperature. The enzymatic reaction was initiated by adding 1 μM 3H-SAM (final concentration) and the mixture was incubated at 30° C. for 1 hour. The reaction was stopped and transferred to filter paper for detection. The amount of tritiated H2A in each sample was determined using a scintillation counter. The IC50 value for each compound was calculated from each 10-point dose-response curve for samples using GraphPad Prism software.

[1] = system: HCT116 parental (wild type) cells; assay: HCT116 cell proliferation assay (CTG), parental cells; assay type: cell-based, human; details: Cell Titer-Glo
Method: (§1) Control samples were analyzed in parallel.
(§2) On Day 0, 150 HCT116 parental or HCT116 homozygous MTAP knockout cells were seeded in 96-well plates in McCoy's 5A medium containing 10% fetal bovine serum and pen/strep. And the cells were incubated overnight at 37° C. and 5% CO2.
(§3) On Day 1, cells were treated with 9-point serial dilution of compound, using a top concentration of 50 μM, 1:5 serial dilution steps and, a DMSO-only control. And cells were incubated for 6 days.
(§4) On Day 7, cell viability was measured using a CTG assay Kit (Cell Titer-Glo; Promega, catalog no.: G7573) in accordance with the manufacturer's instructions. Assays plates were read on a EnVision™ Multilabel Reader using the Ultra-Sensitive luminescence model. The data were analyzed by GraphPad Prism 5.0 software, and the dose-effect curve was obtained by fitting the data using nonlinear S-curve regression, from which the IC50 value was calculated.

[2] = system: HCT116 homozygous MTAP knockout cells; assay: HCT116 cell proliferation assay (CTG), MTAP knockout cells; assay type: cell-based, human; details: Cell Titer-Glo
Method: as §1, §2, §3, §4

[3] = target: hERG potassium ion channel (Homo sapiens (Human), UniProt Q12809); assay: hERG potassium ion channel inhibition assay (automated patch-clamp, CHO-hERG cells); assay type: cell-based; details: Qpatch, highest test concentration 40.00 μM
Method: Drug-hERG interaction was measured by automated patch-clamp methods, with cisapride as positive control.
1.1 CHO-hERG cells were cultured in 175 cm^2 culture bottle. After the cell density grew to 60-80%, the culture medium was removed, washed with 7 mL of phosphate buffered saline (PBS), and then digested with 3 mL Detachin.
1.2 After the digestion was complete, 7 mL culture solution was added for neutralization, and then centrifuged, the clear solution was sucked, and 5 mL culture solution was added for re-suspension to ensure the cell density was 2˜5×10^6/mL.
The process of single-cell high-impedance sealing and whole-cell pattern formation was all automatically completed by Qpatch instrument. After obtaining whole-cell recording mode, the cell was pinching at −80 millivolts. Before giving a 5-second +40 millivolt depolarization stimulus, a 50-millisecond pre-voltage of −50 millivolts was given first, and then repolarized to −50 millivolts for 5 seconds. Go back to −80 millivolts. This voltage stimulation was applied every 15 seconds, recorded for 2 minutes, then extracellular fluid was given and recorded for 5 minutes, and then the administration process began. The concentration of test compound was given from the lowest test concentration for 2.5 minutes per test concentration. After continuous administration of all concentrations, the positive control 3 μM cisapride was given. At least 2 cells were tested for each concentration (n≥2).
4.1 The compound mother liquor was diluted with DMSO, and 10 μL compound stock solution was added to 20 μL DMSO solution, which was continuously 3-fold diluted to 6 DMSO-concentrations.
4.2 4 μL of test compounds in 6 DMSO-concentrations were added to 396 μL extracellular solution and were 100-fold diluted to 6 intermediate concentrations. Then, 80 μL of test compounds in 6 intermediate concentrations were added to 320 μL extracellular solution and were 5-fold diluted to the final concentration to be tested.
4.3 The highest test concentration was 40.00 μM, and six test concentrations were 40.00, 13.33, 4.44, 1.48, 0.49, 0.16 μM, respectively.
4.5 Entire dilution process for test compound preparation was performed by Bravo instrument.
The experimental data were analyzed by GraphPad Prism 5.0 software.

[4] = In vivo pharmacokinetics assay in mice via IV and PO; parameters: species or system ICR mice; details: plasma; for Cmax: read-out: Cmax; for AUC0-t: read-out: AUC0-t
Method: Pharmacokinetics assay for test compounds was performed in mice via IV and PO.
Test compound solution was prepared on the day of administration.
Solvent: IV+PO: 5% DMSO+10% Soultol+85% H2O or saline
Species: ICR mice; SPF level.
Source: Beijing Vital River Laboratory Animal Technology Co., Ltd.
Animal selection: Males. No random grouping
Weighed before dosing, calculated dosage according to body weight. For Groups 1-3, the drug was administered intravenously or intragastrically. For Group 4, the drug administered intragastrically.
For Groups 1-3, at 0.083 h, 0.25 h, 0.5 h, 1 h, 2 h, 4 h, 6 h, 8 h, 24 h, after administration. For Group 4, at 2 h and 4 h after administration.
Blood was collected through the cheeks. For each sample, about 0.05 mL of blood was collected and was added heparin sodium or EDTA-2K as anticoagulant, and was placed on wet ice.
The blood samples were collected and placed on ice and was centrifuged within 1 hour (centrifugation: 6000 g, 3 minutes, 2-8° C.) to separate plasma. Plasma samples were stored in a −80° C. refrigerator prior to analysis.
The pharmacokinetic parameters were calculated using Phoenix WinNonlin8.2.0 based on the blood concentration data at different time points, and AUC0-t, AUC0-∞, MRT0-∞, Cmax, Tmax, and T1/2 and mean values and standard deviations thereof were provided.

in vitro [5] = details: human, microsomes
[6] = Liver microsome metabolic stability (LMS) assay, mouse; details: mouse, liver microsomes
[7] = Hepatic metabolic stability (HMS) assay, rat hepatocytes; details: rat, cryopreserved hepatocytes
Method: 1) 10 mM test compounds were provided.
(§5) 2) 30 mM positive control stock solutions: Dissolved accurate amount of positive control compounds in dimethyl sulfoxide (DMSO).
(§6) 3) 1000× Stock Solution: Diluted 10 mM test compounds and 30 mM positive control compounds to 1 mM and 3 mM with DMSO in 96-well plates.
(§7) 4) 100× Dosing Solution: Diluted 1 mM test compounds and 3 mM positive control compounds to 100 μM and 300 μM dosing solutions with ACN.
(§8) 5) Preparation of 0.5×10^6/mL cells suspension: cryopreserved cells were thawed, isolated and suspended in Incubation Medium, then diluted with pre-warmed Incubation Medium to 0.5×10^6 cells/mL.
(§9) 6) Add 198 μL of pre-warmed cell suspensions in 96-well plates.
(§10) 7) Preparation of Quenching Plate: Transfer 125 μL of stop solution in a set of pre-labeled 96-well plates.
(§11) 8) Spike 2 μL dosing solution to each well of 96-well plates in duplicate.
(§12) 9) For TO Samples, mix to achieve a homogenous suspension for about 1 min, then immediately transfer 25 μL of each sample into well containing 125 μL of ice-cold stop solution followed by mixing.
(§13) 10) Incubate all plates at 37° C. in a 95% humidified incubator at 5% CO2 to start the reactions with constant shaking.
(§14) 11) At 15, 30, 60 and 90 min, mix samples and then transfer 25 μL of each sample at each time point to well containing 125 μL of ice-cold stop solution followed by mixing.
(§15) 12) Medium Control (MC) sample plates (labeled as TO-MC and T90-MC) are prepared in the same way as cell incubation except that medium was used instead of cell suspension.
(§16) 13) At each corresponding time point, stop the reactions by removing the plates from incubator and mixing with 125 μL of ice-cold stop solution.
(§17) 14) Vortex the plates immediately on a plate shaker at 600 rpm for 10 minutes. Then, centrifuge all sample plates at 3220×g for 20 min at 4° C.
(§18) 15) After centrifugation, 80 μL/well of supernatant in the sample plates are transferred to another set of pre-labeled 96-well plates which containing 240 μL of ultra pure water according to the plate map.
(§19) 16) Analytical plates are sealed and store at 4° C. until LC-MS/MS analysis.
(§20) The remaining percents of test articles after incubation were calculated by the follow equations:
(§21) Use the following equation of first order kinetics to calculate T1/2 and CLint:

[8] = system: cryopreserved hepatocytes; assay: as above; details: rat, hepatocytes
Method: 1) 10 mM test compounds were provided.
as §5, §6, §7, §8, §9, §10, §11, §12, §13, §14, §15, §16, §17, §18, §19, §20, §21

[9] = Hepatic metabolic stability (HMS) assay, dog hepatocytes; details: dog, cryopreserved hepatocytes
Method: 1) 10 mM test compounds were provided.
as §5, §6, §7, §8, §9, §10, §11, §12, §13, §14, §15, §16, §17, §18, §19, §20, §21

[10] = system: cryopreserved hepatocytes; assay: as above; details: dog, hepatocytes
Method: 1) 10 mM test compounds were provided.
as §5, §6, §7, §8, §9, §10, §11, §12, §13, §14, §15, §16, §17, §18, §19, §20, §21

[11] = Hepatic metabolic stability (HMS) assay, human hepatocytes; details: human, cryopreserved hepatocytes
[12] = system: cryopreserved hepatocytes; assay: as above; details: human, hepatocytes
[13] = Hepatic metabolic stability (HMS) assay, mouse hepatocytes; details: mouse, cryopreserved hepatocytes
[14] = system: cryopreserved hepatocytes; assay: as above; details: mouse, hepatocytes
[15] = Hepatic metabolic stability (HMS) assay, cynomolgus monkey hepatocytes; details: cynomolgus monkey, cryopreserved hepatocytes
Method: 1) 10 mM test compounds were provided.
as §5, §6, §7, §8, §9, §10, §11, §12, §13, §14, §15, §16, §17, §18, §19, §20, §21

[16] = system: cryopreserved hepatocytes; assay: as above; details: cynomolgus monkey, hepatocytes
Method: 1) 10 mM test compounds were provided.
as §5, §6, §7, §8, §9, §10, §11, §12, §13, §14, §15, §16, §17, §18, §19, §20, §21

[17] = rat, microsomes, 1 μM
in vitro [18] = details: dog, microsomes
in vitro [19] = details: cynomolgus monkey, microsomes
[20] = Liver microsome metabolic stability (LMS) assay, human; details: human, microsomes
[21] = Homo sapiens, HCT-116, 6 days treatment

Chain of PRMT5/MEP50 complex (O14744 whole entry, species assumed): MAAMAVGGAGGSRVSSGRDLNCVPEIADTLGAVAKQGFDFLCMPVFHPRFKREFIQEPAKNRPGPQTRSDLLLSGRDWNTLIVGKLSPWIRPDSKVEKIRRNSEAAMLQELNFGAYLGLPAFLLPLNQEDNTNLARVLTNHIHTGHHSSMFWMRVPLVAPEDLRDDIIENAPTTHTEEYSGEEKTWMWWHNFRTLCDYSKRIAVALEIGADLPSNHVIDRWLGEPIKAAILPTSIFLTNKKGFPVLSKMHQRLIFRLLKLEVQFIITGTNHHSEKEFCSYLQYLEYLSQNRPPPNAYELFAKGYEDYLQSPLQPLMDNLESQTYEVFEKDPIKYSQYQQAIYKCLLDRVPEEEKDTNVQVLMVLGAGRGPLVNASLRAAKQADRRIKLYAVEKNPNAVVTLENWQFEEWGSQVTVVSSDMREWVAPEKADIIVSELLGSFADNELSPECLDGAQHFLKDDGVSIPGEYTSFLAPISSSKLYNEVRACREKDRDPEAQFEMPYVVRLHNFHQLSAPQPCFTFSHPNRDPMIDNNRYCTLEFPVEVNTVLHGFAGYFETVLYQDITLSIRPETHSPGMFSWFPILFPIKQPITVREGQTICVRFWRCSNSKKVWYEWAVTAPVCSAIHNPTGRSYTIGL
Chain of PRMT5/MEP50 complex (Q9BQA1 whole entry partner, species assumed): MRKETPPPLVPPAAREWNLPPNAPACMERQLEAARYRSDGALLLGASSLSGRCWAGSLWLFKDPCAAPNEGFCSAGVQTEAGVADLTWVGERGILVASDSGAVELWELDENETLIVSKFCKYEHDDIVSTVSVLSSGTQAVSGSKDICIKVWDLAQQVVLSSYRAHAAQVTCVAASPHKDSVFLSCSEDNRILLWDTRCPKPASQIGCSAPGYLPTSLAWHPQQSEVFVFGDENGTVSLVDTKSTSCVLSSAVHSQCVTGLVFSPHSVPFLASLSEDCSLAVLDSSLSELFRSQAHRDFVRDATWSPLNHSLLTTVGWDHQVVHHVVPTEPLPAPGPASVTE
Chain of PRMT5/MEP50 (O14744 whole entry): as the sequence (O14744 whole entry, species assumed) above
Chain of PRMT5/MEP50 (Q9BQA1 whole entry partner): as the sequence (Q9BQA1 whole entry partner, species assumed) above
Chain of hERG potassium ion channel (Q12809 whole entry): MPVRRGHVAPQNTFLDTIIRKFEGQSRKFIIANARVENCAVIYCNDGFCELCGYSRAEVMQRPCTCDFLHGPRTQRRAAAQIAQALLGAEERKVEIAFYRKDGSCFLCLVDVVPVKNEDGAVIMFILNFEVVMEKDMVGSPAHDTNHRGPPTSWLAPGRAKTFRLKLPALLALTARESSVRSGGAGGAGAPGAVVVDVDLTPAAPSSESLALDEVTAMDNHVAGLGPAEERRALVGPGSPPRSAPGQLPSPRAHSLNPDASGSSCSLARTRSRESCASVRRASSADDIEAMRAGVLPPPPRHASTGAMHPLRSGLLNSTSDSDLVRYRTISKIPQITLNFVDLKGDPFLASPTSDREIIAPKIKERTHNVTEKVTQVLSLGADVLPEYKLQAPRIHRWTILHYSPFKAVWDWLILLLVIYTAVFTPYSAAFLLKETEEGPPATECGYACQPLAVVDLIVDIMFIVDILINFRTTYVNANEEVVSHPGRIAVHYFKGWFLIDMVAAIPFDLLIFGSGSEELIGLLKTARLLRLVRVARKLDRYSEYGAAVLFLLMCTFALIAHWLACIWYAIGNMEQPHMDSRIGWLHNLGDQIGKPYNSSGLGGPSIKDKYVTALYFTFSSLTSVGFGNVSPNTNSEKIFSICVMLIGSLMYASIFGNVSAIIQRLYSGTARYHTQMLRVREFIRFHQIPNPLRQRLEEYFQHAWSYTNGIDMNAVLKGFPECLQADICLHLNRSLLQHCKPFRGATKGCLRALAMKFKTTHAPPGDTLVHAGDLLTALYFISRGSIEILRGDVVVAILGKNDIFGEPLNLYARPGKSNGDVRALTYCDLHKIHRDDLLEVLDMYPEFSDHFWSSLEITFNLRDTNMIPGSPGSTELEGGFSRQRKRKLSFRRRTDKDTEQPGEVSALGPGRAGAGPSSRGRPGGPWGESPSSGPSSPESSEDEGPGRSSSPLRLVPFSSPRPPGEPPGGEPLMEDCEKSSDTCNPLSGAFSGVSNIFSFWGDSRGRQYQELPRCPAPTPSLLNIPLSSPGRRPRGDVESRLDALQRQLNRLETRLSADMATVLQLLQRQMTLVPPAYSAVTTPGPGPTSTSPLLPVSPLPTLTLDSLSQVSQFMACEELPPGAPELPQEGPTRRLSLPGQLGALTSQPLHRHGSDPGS

IC50 (PRMT5/MEP50): 91 nM
IC50 (PRMT5/MEP50 complex): 91 nM
IC50 ([2]; 6 days treatment): 77 nM
SMILES: Cc1ncc2c(N)nc3ccc(C(=O)N(Cc4ccc(C(F)(F)F)cn4)[C@H](C)c4ncccn4)cc3n12 [Compound 7]
IC50 ([1]; 6 days treatment): 961 nM

IC50 (PRMT5/MEP50): 104 nM
IC50 (PRMT5/MEP50 complex): 198 nM
IC50 ([2]; 6 days treatment): 97 nM
SMILES: Cc1ncn2c1c(N)nc1ccc(C(=O)N(Cc3ccc(C(F)(F)F)cn3)[C@H](C)c3ncccn3)cc12 [Compound 8]
IC50 ([1]; 6 days treatment): 146 nM

IC50 (PRMT5/MEP50): 101 nM
IC50 (PRMT5/MEP50 complex): 321 nM
IC50 ([2]; 6 days treatment): 72 nM
SMILES: Cc1nc(C)n2c1c(N)nc1ccc(C(=O)N(Cc3ccc(C(F)(F)F)cn3)[C@H](C)c3ncccn3)cc12 [Compound 9]
IC50 ([1]; 6 days treatment): 1160 nM

SMILES: CN(C(=O)c1cc2c(cn1)nc(N)c1cncn12)[C@@H]1COc2cc(C(F)(F)F)ccc21 [Compound 14]
IC50 (PRMT5/MEP50): 47 nM
IC50 [1, 21]: 6270 nM
IC50 [2, 21]: 70 nM
IC50 [3]: 17900 nM
C8 h ([4]; PO 30 mg/kg): 3833 ng/mL
C24 h ([4]; PO 30 mg/kg): 574 ng/mL
C8 h ([4]; PO 50 mg/kg): 6927 ng/mL
C24 h ([4]; PO 50 mg/kg): 615 ng/mL
Cmax ([4]; male, ICR, mouse, PO 30 mg/kg): 7500 ng/mL
Cmax ([4]; male, ICR, mouse, PO 50 mg/kg): 9920 ng/mL
clearance ([4]; male, ICR, mouse, IV 1.0 mg/kg): 7.62 mL/min/kg
half-life ([4]; male, ICR, mouse, PO 30 mg/kg): 358 min
AUC0-t ([4]; male, ICR, mouse, PO 30 mg/kg): 81.1 µg·h/mL
half-life ([4]; male, ICR, mouse, PO 50 mg/kg): 300 min
AUC0-t ([4]; male, ICR, mouse, PO 50 mg/kg): 123 µg·h/mL
half-life at 1 μM (in vitro [5]): > 145 min
half-life at 1 μM [6]: 132 min

CLint scaled at 3 μM [7]: 3170 mL/min/kg
half-life at 3 μM [7]: 2 min
CLint (hep) R [8]: 678.0 μL/min/10^6
CLint scaled at 3 μM [9]: 3270 mL/min/kg
half-life at 3 μM [9]: 2.9 min
CLint (hep) D [10]: 475.1 μL/min/10^6
CLint scaled at 3 μM [11]: 1020 mL/min/kg
half-life at 3 μM [11]: 3 min
CLint (hep) H [12]: 367.6 μL/min/10^6
CLint scaled at 3 μM [13]: 7220 mL/min/kg
half-life at 3 μM [13]: 2.3 min
CLint (hep) M [14]: 608.1 μL/min/10^6
CLint scaled at 3 μM [15]: 2360 mL/min/kg
half-life at 3 μM [15]: 2.1 min
CLint (hep) C [16]: 655.8 μL/min/10^6
SMILES: O=c1ccc2ccc(O)cc2o1 [Ref. 2, 7-Hydroxycoumarin, reference compound]

SMILES: O=C(O)Cc1ccccc1Nc1c(Cl)cccc1Cl [Ref. 5, Diclofenac]
CLint (liver) R [17]: 233.1 mL/min/kg
half-life at 1 μM (in vitro [5]): 6.7 min
microsomal CLint at 1 μM (in vitro [5]): 206 µL/min/mg
CLint scaled at 1 μM (in vitro [18]): < 13.8 mL/min/kg
half-life at 1 μM (in vitro [18]): > 145 min
microsomal CLint at 1 μM (in vitro [18]): < 9.6 µL/min/mg
CLint scaled at 1 μM (in vitro [19]): < 13 mL/min/kg
half-life at 1 μM (in vitro [19]): > 145 min
microsomal CLint at 1 μM (in vitro [19]): < 9.6 µL/min/mg
CLint scaled at 1 μM [20]: 185 mL/min/kg
